Starred links: 1 amine or outer side, 2 acyl side, 3 side chain; linkers in the order of their positions; H or OH if unused. Positions of bridges follow the written chain, without caps; N, C: chain ends. No end group written: not given here. *: point of attachment. TBMB = c1c(C[*:1])cc(C[*:3])cc1C[*:2]; Myristyl = CCCCCCCCCCCCCC*
What was measured:
[1] = test system: metastatic initiating cells (MICs); assay: Flow cytometry for alanine walk (MIC inhibition); format: cell-based; details: alanine walk peptide inhibitors, FACS MIC signature
Experimental: FACS (Fluorescence-activated cell sorting) was performed on single-cell suspensions treated with a suite of alanine walk peptide inhibitors. Cells were stained an array of antibodies to target the metastatic initiating cell (MIC) signature including CD44, CD24, SNAIL, ABCB5, CSV and Hoechst dye to monitor cell viability. The FACS gating strategy used is adopted and modified from our signature for metastatic initiating cells (MICs), which sorted cells based on the MIC, therapeutic resistant phenotype, shown to be associated with metastatic and aggressive cancer cells. A flow cytometry gating strategy was always included in the analysis to exclude dead cells ([…]). Flow cytometry acquisition was performed on single cell suspensions using BLSR II. Analysis was performed using FlowJo software.

CSC = CSC inhibition (Table 10 summary); format: cell-based; details: linear peptide derivatives; change stated relative to prototype PDL1-L1
[2] = test system: PDL1-PTM1, CSV and ALDH1A1 in 4T1 cells; assay: Imaging of PDL1-PTM1, CSV and ALDH1A1 after cyclic PDL1 peptide; format: cell-based; details: 4T1 breast cancer cell line (Table 11 comment)
Experimental: Breast cancer cell line, 4T1, was treated with vehicle control or cyclic PDL1 peptide (cyclic PDL1) at a concentration of 50 μM. Cells were permeabilised and were probed with primary antibodies against PDL1-PTM1, CSV and ALDH1A1. Cover slips were mounted on glass microscope slides with ProLong nucblue glass Antifade reagent (Life Technologies). PDL1-PTM1, CSV and ALDH1A1 digital images were analysed using ImageJ software (ImageJ, NIH, Bethesda, MD, USA). Graphs represent the mean fluorescent intensity in the nucleus or the cytoplasm compartments with significant differences calculated as per Mann-Whitney analysis or the ratio of nuclear to cytoplasmic staining for PDL1-PTM1 which was calculated using the formula F(n−b)/(c−b) wherein n=nuclear staining, b=background, c=cytoplasmic. A ratio of 1 or high indicates nuclear bias, under 1 indicates cytoplasmic bias.

[3] = test system: 4T1 TNBC metastatic cancer cells; assay: 4T1 model of metastatic breast cancer in mice; format: in vivo, mouse
Experimental: 4T1 Gold standard immunotherapy resistant mouse model mice obtained from the ARC, Perth and mice were inoculated with 4T1 TNBC metastatic cancer cells. DL-2 is supplied lyophilised in glass vials and was reconstituted using sodium chloride injection BP (0.9% saline) to make a stock solution of 10 mg/mL using a needle/syringe, DL-2 was mixed by inversion. Animals were then injected by intraperitoneal injection at 10, 20 or 30 mg/kg daily and rested over the weekend. Mice were monitored over time for body weight and tumour volume.
4T1 Gold standard immunotherapy resistant mouse model mice obtained from the ARC, Perth and mice were inoculated with 4T1 TNBC metastatic cancer cells. DL-2 or DL-2-D is supplied lyophilised in glass vials was reconstituted using sodium chloride injection BP (0.9% saline) to make a stock solution of 10 mg/mL using a needle/syringe, DL-2 was mixed by inversion. Animals were then injected by intraperitoneal injection and mice were monitored over time for body weight and tumour volume for DL-2 at 20 mg/kg every second day with resting over the weekend in conjunction with αPD1 or isotype control (10 mg/kg).
DL-2-D was mixed by inversion. Animals were then injected by intraperitoneal injection and mice were monitored over time for body weight and tumour volume for DL-2-D at a concentration of 20 mg/kg every two days (identical regime to αPD1) in conjunction with αPD1 or isotype control (10 mg/kg).

CT26 cells = assay: WST-1 cell proliferation assay, CT26; format: cell-based, mouse; details: CT26, WST-1, 72 hours
Experimental: (§1) (A) CT26, 4T1 or MDA-MB-231 Cells were treated with inhibitors for 72 hours. Following inhibition, media was removed and replaced with WST-1 cell proliferation reagent. Absorbance was recorded at 450 nm after 1 hour. Data represent a single independent experiment performed in triplicate. Results are graphed as mean +/− standard error (SE). B) MDA-MB-231 or CT26 cancer cells were treated with vehicle control, DL-2-Batch 1 (original stock), DL-2-Batch 2 (current stock), DL-2-TBAB or linear PDL1. Cells were permeabilised and were probed with the DUOLINK ligation assay. Cover slips were mounted on glass microscope slides with ProLong nucblue glass Antifade reagent (Life Technologies). PDL1Ac and IMPα1 DUOLINK Digital images were analysed using ImageJ software (ImageJ, NIH, Bethesda, MD, USA) and graphs represent the mean DOT Fluorescent Intensity in the nucleus or the cytoplasm compartments with significant differences calculated as per one-way ANOVA comparison. (C) MDA-MB-231 or CT26 cancer cells were treated with vehicle control, DL-2-Batch 1 (Original stock), DL-2-Batch 2 (current stock), DL-2-TBAB or linear PDL1. Cells were permeabilised and were probed with the DUOLINK ligation assay. Cover slips were mounted on glass microscope slides with ProLong nucblue glass Antifade reagent (Life Technologies). PDL1-unmodified and IMPα1 DUOLINK digital images were analysed using ImageJ software (ImageJ, NIH, Bethesda, MD, USA) and graphs represent the mean DOT fluorescent intensity in the nucleus or the cytoplasm compartments with significant differences calculated as per one-way ANOVA comparison.
(§2) 4T1, CT26 or MDA-MB-231 cancer cell lines were treated with DL-2 or DL-2-D bicyclic inhibitors for 72 hours. Following inhibition, media was removed and replaced with WST-1 cell proliferation reagent. Absorbance was recorded at 450 nm after 1 hour. Data represent a single independent experiment performed in triplicate; results are graphed as mean +/− standard error (SE).

MDA-MB-231 cells = assay: WST-1 cell proliferation assay, MDA-MB-231; format: cell-based, human; details: MDA-MB-231, WST-1, 72 hours
Experimental: (§3) MDA-MB-231 cells were seeded at 4×10^3 cells/well into a 96-well flat bottom tissue culture plate in a final volume of 100 ul and left to adhere for 24 hours at 37° C. and 5% CO2. Cells were then treated with inhibitors for 72 hours at a final concentration of 200, 100, 50, 25, 12.5 or 6.25 μM. Following inhibition, media was removed and replaced with 100 μL/well of WST-1 cell proliferation reagent (Sigma-Aldrich, Cat# 11644807001) at 1:10 final dilution. Absorbance was recorded at 450 nm at 1, 2, 3, and 4 hour incubation periods using a microplate spectrophotometer (with 30 sec mix time). Data represent a single independent experiment performed in triplicate, results are graphed as mean +/− standard error (SE).
as §1, §2
Cells weretreated with inhibitors for 48 hours. Following inhibition, media was removed and replaced with WST-1 cell proliferation reagent. Absorbance was recorded at 450 nm after 1 hour.

CD8+ TIM3+ T cells = assay: FACS of CD8+ TIM3+ T cells from 4T1 tumour mouse model; format: in vivo; details: 4T1 TNBC tumour mouse model
Source text: FIG. 32 provides graphical representations showing a comparison between DL-2 and DL-2-D. (A) As per FIGS. 24, and 25, above. (B) Fixed cells were washed with PBS and resuspended in PBS containing 1% BSA prior to antibody staining. Primary antibodies targeting CD8, TIM3 and PD1 antibodies were used. Appropriate antibody controls were used for all flow cytometry stain and acquisition. All samples were acquired on an LSR Fortessa cytometer (BD Biosciences, Franklin Lakes, NJ), and data were analyzed using FlowJo v10 software

4T1 cells = assay: WST-1 cell proliferation assay, 4T1; format: cell-based; details: 4T1, WST-1, 72 hours
Experimental: as §1, §2

[4] = Rat plasma stability assay; format: in vitro ADME; details: 37° C., up to 24 hours
Experimental: The stability assay was performed as per CRO's protocol (Creative Peptides). In brief, peptide stability assays were carried out using a rat plasma model with the following steps: • 3.6 mL of human plasma and rat plasma were thawed at room temperature and centrifuged at 3000 rpm for 15 min. Remove the precipitate. • Prepare 20 mL termination solution ([…]) and precool at 4° C. • Prepare the following solution:
• Incubate the tube at 37° C. Take out 200 μL plasma sample at desired time points up to 24 hours respectively (e.g., at 0, 15, 30, 60, 120 mins, etc). Add 400 μL pre-cooled stop solution, centrifuge at 3000 rpm, 4° C. for 15 min, and carefully aspirate the supernatant. • The supernatant samples were filtered with a 0.22 μm filter membrane, and then analysed by LC-MS in order to determine the percentage of the test compound remaining.
The stability assay was performed using the same protocol as described above in Example 7.

[5] = test system: cancer cell proliferation; assay: Cancer cell proliferation (Table 12 summary); format: cell-based
Experimental: as §3, §2

MDA-MB-231-Br cells = assay: WST-1 cell proliferation assay, MDA-MB-231-Br; format: cell-based, human; details: WST-1
[6] = DL-2-D (20 mg/kg) and αPD1 (10 mg/kg) combination therapy, day 20

TFIFRLRAGRMMDVKK
% Inhibition (number of metastatic initiating cells) [1]: 0%

AFIFRLRKGRMMDVKK
% Inhibition (number of metastatic initiating cells) [1]: 80.13%

ACLTFIFCRLRKGRCMMDVKK [DL2-Linear, Myristyl- DL2 linear peptide]
Potency (CSC inhibition) (CSC): No change

TFIFALRKGRMMDVKK
% Inhibition (number of metastatic initiating cells) [1]: 71.67%

LTFIFRLRKGRMMDVKKAGGA (Myristyl-LTFIFRLRKGRMMDVKKAGGA; not fully specified) [PDL1-L1 C2, Myristyl- cyclic peptide derivative, 4 linker amino acids]
inhibition of mesenchymal cancer markers and nuclear PDL1-PTM1 [2]: Failed to inhibit

TAIFRLRKGRMMDVKK
% Inhibition (number of metastatic initiating cells) [1]: 74.35%

acltfifcrirckGrcmmdvkk [DL-2-D]
lung metastasis [3, 6]: reduces | primary tumour burden [3, 6]: reduces | lung, liver or spleen weights ([3]; DL-2-D alone): does not alter | body weight ([3]; DL-2-D and anti-PD1 combination therapy): No change | tumour volume ([3]; DL-2-D as a monotherapy agent): significantly inhibits | lung, liver or spleen weights ([3]; DL-2-D in combination with anti-PD1): does not alter | body weight ([3]; DL-2-D monotherapy): No change | inhibition of proliferation (CT26 cells): significantly inhibit the proliferation | inhibition of proliferation (MDA-MB-231 cells): significantly inhibit the proliferation | abrogating the TIM3+ immunotherapy-resistant signature in CD8+ T cells (CD8+ TIM3+ T cells): more potent than DL-2 | inhibition of proliferation (4T1 cells): significantly inhibit the proliferation | stability in rat plasma (percentage of test compound remaining) [4]: significantly more stable

TFIFRLRKGRMMAVKK
% Inhibition (number of metastatic initiating cells) [1]: 100%

TFAFRLRKGRMMDVKK
% Inhibition (number of metastatic initiating cells) [1]: 30.2%

TFIFRLRKGRAMDVKK
% Inhibition (number of metastatic initiating cells) [1]: 74.35%

TFIFRLRKGRMADVKK
% Inhibition (number of metastatic initiating cells) [1]: 100%

TFIFRLRKGRMMDVKA
% Inhibition (number of metastatic initiating cells) [1]: 58.03%

TFIARLRKGRMMDVKK
% Inhibition (number of metastatic initiating cells) [1]: 4.4%

TFIFRLRKGRMMDAKK
% Inhibition (number of metastatic initiating cells) [1]: 81.9%

kkvdmmcrGkrlrcfiftlca [DL2-D Ret Linear]
Potency (CSC inhibition) (CSC): No change

TFIFRLAKGRMMDVKK
% Inhibition (number of metastatic initiating cells) [1]: 43.98%

TFIFRLRKARMMDVKK
% Inhibition (number of metastatic initiating cells) [1]: 41.38%

ACLTFIFRLRCKGRMCMDVGKK (Myristyl-ACLTFIFRLRCKGRMCMDVGKK; linker 2-11-16 via TBMB) [DL-3, bicyclic peptide, Myristyl- N-terminus, TBMB backbone]
inhibition of cancer cell proliferation ([5]; Table 12 comment): DL-3 displayed no

TFIFRARKGRMMDVKK
% Inhibition (number of metastatic initiating cells) [1]: 35.6%

TFIFRLRKGAMMDVKK
% Inhibition (number of metastatic initiating cells) [1]: 62.69%

acltfifcrlrkGrcmmdvkk [DL2-D-Linear]
Potency (CSC inhibition) (CSC): No change

LTFICFRLRKGRMCMDVCGKK (Myristyl-LTFICFRLRKGRMCMDVCGKK; linker 5-14-18 via TBMB) [DL-1, bicyclic peptide, Myristyl- N-terminus, TBMB backbone]
inhibition of proliferation (MDA-MB-231 cells): able to inhibit proliferation | inhibition of proliferation (MDA-MB-231-Br cells): able to inhibit proliferation | fold less potent than DL-2 at inhibiting cancer cell proliferation [5]: DL-1 was 3-fold less

TFIFRLRKGRMMDVAK
% Inhibition (number of metastatic initiating cells) [1]: 48.7%

Source: patent US20240117005A1, “NOVEL BICYCLIC PEPTIDES” (THE COUNCIL OF THE QUEENSLAND INSTITUTE OF MEDICAL RESEARCH, priority 2021, published 2024)
